Measured values taken from ChEMBL document CHEMBL1201862, “PubChem BioAssay data set” (2004).
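Test compounds were applied to cells in 96-well plates for 48 hours at 5 doses. GI50 marks 50% less growth.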 Active and inactive are the calls of the source. Cut-off read from the data, not from the text of the source: active = GI50 up to about 1.1 µM and inactive = higher.

Experiments:
Test in all cases: NCI tumour cell line growth inhibition, 48 h
SF-539 = tested on: SF-539
CCRF-CEM = tested on: CCRF-CEM
XF498 = tested on: XF498
Hs-578T = tested on: Hs-578T
TK-10 = tested on: TK-10
NCI-H226 = tested on: NCI-H226
HOP-18 = tested on: HOP-18
EKVX = tested on: EKVX
HOP-62 = tested on: HOP-62
HCT-116 = tested on: HCT-116
M14 = tested on: M14
HOP-92 = tested on: HOP-92
M19-MEL = tested on: M19-MEL
LOX IMVI = tested on: LOX IMVI
SNB-75 = tested on: SNB-75
HL-60 = tested on: HL-60
OVCAR-4 = tested on: OVCAR-4
BT-549 = tested on: BT-549
U-251 = tested on: U-251
SK-MEL-2 = tested on: SK-MEL-2
DLD-1 = tested on: DLD-1
T47D = tested on: T47D
COLO 205 = tested on: COLO 205
CAKI-1 = tested on: CAKI-1
NCI-H522 = tested on: NCI-H522
HCC 2998 = tested on: HCC 2998
SR = tested on: SR
SNB-19 = tested on: SNB-19
SK-OV-3 = tested on: SK-OV-3
LXFL 529 = tested on: LXFL 529
MDA-N = tested on: MDA-N
SF-295 = tested on: SF-295
RXF 393 = tested on: RXF 393
DMS-114 = tested on: DMS-114
MOLT-4 = tested on: MOLT-4
SK-MEL-5 = tested on: SK-MEL-5
HCT-15 = tested on: HCT-15
RPMI-8226 = tested on: RPMI-8226
A498 = tested on: A498
UO-31 = tested on: UO-31
SF-268 = tested on: SF-268
SN12C = tested on: SN12C
MDA-MB-435 = tested on: MDA-MB-435
MCF7 = tested on: MCF7
A549 = tested on: A549
NCI/ADR-RES = tested on: NCI/ADR-RES
NCI-H23 = tested on: NCI-H23
OVCAR-5 = tested on: OVCAR-5
ACHN = tested on: ACHN
Malme-3M = tested on: Malme-3M
DMS-273 = tested on: DMS-273
K562 = tested on: K562
SNB-78 = tested on: SNB-78
UACC-257 = tested on: UACC-257
KM-20L2 = tested on: KM-20L2
DU-145 = tested on: DU-145
MDA-MB-231 = tested on: MDA-MB-231
HT-29 = tested on: HT-29
OVCAR-8 = tested on: OVCAR-8
UACC-62 = tested on: UACC-62
786-0 = tested on: 786-0
PC-3 = tested on: PC-3
IGROV-1 = tested on: IGROV-1
SK-MEL-28 = tested on: SK-MEL-28
KM12 = tested on: KM12
NCI-H460 = tested on: NCI-H460
OVCAR-3 = tested on: OVCAR-3
RXF 631 = tested on: RXF 631
SW-620 = tested on: SW-620

COC(=O)c1ccccc1NC(=O)C(=O)CC(=O)c1ccccc1NC1=CC(=O)C(=O)c2ccccc21
GI50 (SF-539): 18.6 µM (inactive) | GI50 (CCRF-CEM): 3.17 µM (inactive) | GI50 (XF498): 15.6 µM (inactive) | GI50 (Hs-578T): 7.45 µM (inactive) | GI50 (TK-10): 67.6 µM (inactive) | GI50 (NCI-H226): 25.9 µM (inactive) | GI50 (HOP-18): 7.59 µM (inactive) | GI50 (EKVX): 44.8 µM (inactive) | GI50 (HOP-62): 22.7 µM (inactive) | GI50 (HCT-116): 4.67 µM (inactive) | GI50 (M14): 5.12 µM (inactive) | GI50 (HOP-92): 5.16 µM (inactive) | GI50 (M19-MEL): 2.02 µM (inactive) | GI50 (LOX IMVI): 1.68 µM (inactive) | GI50 (SNB-75): 17.5 µM (inactive) | GI50 (HL-60): 1.55 µM (inactive) | GI50 (OVCAR-4): 7.91 µM (inactive) | GI50 (BT-549): 15.2 µM (inactive) | GI50 (U-251): 11.1 µM (inactive) | GI50 (SK-MEL-2): 12.5 µM (inactive) | GI50 (DLD-1): 4.57 µM (inactive) | GI50 (T47D): 18.7 µM (inactive) | GI50 (COLO 205): 31.9 µM (inactive) | GI50 (CAKI-1): 23.8 µM (inactive) | GI50 (NCI-H522): 5.22 µM (inactive) | GI50 (HCC 2998): 25.6 µM (inactive) | GI50 (SR): 2.67 µM (inactive) | GI50 (SNB-19): 20.2 µM (inactive) | GI50 (SK-OV-3): 32.5 µM (inactive) | GI50 (LXFL 529): 5.09 µM (inactive) | GI50 (MDA-N): 1.71 µM (inactive) | GI50 (SF-295): 15.6 µM (inactive) | GI50 (RXF 393): 15.6 µM (inactive) | GI50 (DMS-114): 1.71 µM (inactive) | GI50 (MOLT-4): 3.98 µM (inactive) | GI50 (SK-MEL-5): 5.13 µM (inactive) | GI50 (HCT-15): 5.65 µM | GI50 (RPMI-8226): 2.64 µM (inactive) | GI50 (A498): > 56.2 µM (inactive) | GI50 (UO-31): 15.1 µM (inactive) | GI50 (SF-268): 5.96 µM (inactive) | GI50 (SN12C): 3.94 µM (inactive) | GI50 (MDA-MB-435): 4.15 µM (inactive) | GI50 (MCF7): 8.87 µM (inactive) | GI50 (A549): 16.3 µM (inactive) | GI50 (NCI/ADR-RES): 2.33 µM (inactive) | GI50 (NCI-H23): 5.09 µM (inactive) | GI50 (OVCAR-5): 29.2 µM (inactive) | GI50 (ACHN): 14.5 µM (inactive) | GI50 (Malme-3M): 3.02 µM (inactive) | GI50 (DMS-273): 10.7 µM (inactive) | GI50 (K562): 2.91 µM (inactive) | GI50 (SNB-78): 7.66 µM (inactive) | GI50 (UACC-257): 6.05 µM (inactive) | GI50 (KM-20L2): 72.9 µM (inactive) | GI50 (DU-145): 23.2 µM (inactive) | GI50 (MDA-MB-231): 3.4 µM (inactive) | GI50 (HT-29): 44.5 µM (inactive) | GI50 (OVCAR-8): 7.01 µM (inactive) | GI50 (UACC-62): 8.87 µM (inactive) | GI50 (786-0): 5.65 µM (inactive) | GI50 (PC-3): 10.9 µM (inactive) | GI50 (IGROV-1): 13.2 µM (inactive) | GI50 (SK-MEL-28): 13.1 µM (inactive) | GI50 (KM12): 15.2 µM (inactive) | GI50 (NCI-H460): 19.7 µM (inactive) | GI50 (OVCAR-3): 1.78 µM (inactive) | GI50 (RXF 631): 26.5 µM (inactive) | GI50 (SW-620): 5.4 µM (inactive)
